Results published in PubChem BioAssay AID330 (DTP/NCI, 2004).
Where “and” joins values, the source holds several entries; their conditions need not be identical. Equal entries are not always repeated. Inconclusive results and toxic doses are left out.

System: P388 leukemia ip, CD2F1 mice, survival T/C
Assay: NCI In Vivo Anticancer Drug Screen. Data for tumor model P388 Leukemia (intraperitoneal) in CD2F1 (CDF1) mice
Settings: endpoint: median survival time, higher = longer survival
Procedure, shortened: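 Mice carrying the transplanted tumor received test compound or vehicle. Survival was recorded in each group, and the value is the treated-group measurement divided by that of the vehicle-treated control group.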

[1] = dose: 50.0 mg/kg/injection, schedule: Q01DX009 (ip), vehicle: other
[2] = dose: 200.0 mg/kg/injection, schedule: Q01DX009 (ip), vehicle: other
[3] = dose: 400.0 mg/kg/injection, schedule: Q01DX009 (ip), vehicle: other
[4] = dose: 50.0 mg/kg/injection, schedule: Q01DX005 (ip), vehicle: Klucel (hydroxypropylcellulose) (HPC)
[5] = dose: 100.0 mg/kg/injection, schedule: Q01DX005 (ip), vehicle: Klucel (hydroxypropylcellulose) (HPC)
[6] = dose: 200.0 mg/kg/injection, schedule: Q01DX005 (ip), vehicle: Klucel (hydroxypropylcellulose) (HPC)
[7] = dose: 25.0 mg/kg/injection, schedule: Q01DX009 (ip), vehicle: Klucel (hydroxypropylcellulose) (HPC)
[8] = dose: 50.0 mg/kg/injection, schedule: Q01DX005 (ip), vehicle: saline with Tween-80
[9] = dose: 100.0 mg/kg/injection, schedule: Q01DX005 (ip), vehicle: saline with Tween-80
[10] = dose: 200.0 mg/kg/injection, schedule: Q01DX005 (ip), vehicle: saline with Tween-80
[11] = dose: 60.0 mg/kg/injection, schedule: Q01DX005 (ip), vehicle: saline with Tween-80
[12] = dose: 120.0 mg/kg/injection, schedule: Q01DX005 (ip), vehicle: saline with Tween-80
[13] = dose: 240.0 mg/kg/injection, schedule: Q01DX005 (ip), vehicle: saline with Tween-80
[14] = dose: 50.0 mg/kg/injection, schedule: Q04DX002 (ip), vehicle: saline with Tween-80
[15] = dose: 100.0 mg/kg/injection, schedule: Q04DX002 (ip), vehicle: saline with Tween-80

Compound: COC(=O)c1nc(-c2ccc3c(n2)C(=O)C(N)=C(OC)C3=O)c(N)c(-c2ccc(OC)c(OC)c2O)c1C
- T/C (dose: 1.5 mg/kg/injection, schedule: Q01DX009 (ip), vehicle: saline with Tween-80): 100 % of control
- T/C (dose: 3.0 mg/kg/injection, schedule: Q01DX009 (ip), vehicle: saline with Tween-80): 118 % of control
- T/C (dose: 6.0 mg/kg/injection, schedule: Q01DX009 (ip), vehicle: saline with Tween-80): 122 % of control
- T/C (dose: 6.25 mg/kg/injection, schedule: Q01DX009 (ip), vehicle: saline with Tween-80): 150 % of control
- T/C (dose: 66.0 mg/kg/injection, schedule: Q04DX003 (ip), vehicle: saline with Tween-80): 109 % of control

Compound: Nc1ccc(NC(=O)c2ccc([N+](=O)[O-])cc2)cc1
- T/C (dose: 25.0 mg/kg/injection, schedule: Q01DX009 (ip), vehicle: other): 115 % of control
- T/C [1]: 112 % of control
- T/C (dose: 100.0 mg/kg/injection, schedule: Q01DX009 (ip), vehicle: other): 106 % of control
- T/C [2]: 115 % of control
- T/C [3]: 123 % of control

Compound: OCC12CCCC(CO)(COC1)C2O (centres undefined)
- T/C (dose: 25.0 mg/kg/injection, schedule: Q01DX005 (ip), vehicle: saline): 105 % of control
- T/C (dose: 50.0 mg/kg/injection, schedule: Q01DX005 (ip), vehicle: saline): 105 % of control
- T/C (dose: 100.0 mg/kg/injection, schedule: Q01DX005 (ip), vehicle: saline): 100 % of control
- T/C (dose: 200.0 mg/kg/injection, schedule: Q01DX005 (ip), vehicle: saline): 115 % of control

Compound: C/C(=N\NC(=O)Cc1ccccc1)C(=O)O
- T/C [4]: 100 % of control
- T/C [5]: 89 % of control
- T/C [6]: 94 % of control

Compound: CC(C)N=C(NC(C)C)c1ccc(NC(=O)Nc2ccc(NC(=O)Nc3ccc(C(=NC(C)C)NC(C)C)cc3)cc2)cc1
- T/C (dose: 1.56 mg/kg/injection, schedule: Q01DX005 (ip), vehicle: saline with Tween-80): 111 % of control
- T/C (dose: 3.13 mg/kg/injection, schedule: Q01DX005 (ip), vehicle: saline with Tween-80): 108 % of control and 113 % of control
- T/C (dose: 6.25 mg/kg/injection, schedule: Q01DX005 (ip), vehicle: saline with Tween-80): 104 % of control and 124 % of control

Compound: CCCCCCCCCCCC(=O)N(CCOC(=O)C(C)(C)C)CCOC(=O)C(C)(C)C
- T/C [7]: 97 % of control
- T/C (dose: 50.0 mg/kg/injection, schedule: Q01DX009 (ip), vehicle: Klucel (hydroxypropylcellulose) (HPC)): 104 % of control and 113 % of control and 94 % of control
- T/C (dose: 100.0 mg/kg/injection, schedule: Q01DX009 (ip), vehicle: Klucel (hydroxypropylcellulose) (HPC)): 100 % of control (2×) and 111 % of control
- T/C (dose: 200.0 mg/kg/injection, schedule: Q01DX009 (ip), vehicle: Klucel (hydroxypropylcellulose) (HPC)): 99 % of control and 120 % of control
- T/C (dose: 400.0 mg/kg/injection, schedule: Q01DX009 (ip), vehicle: Klucel (hydroxypropylcellulose) (HPC)): 108 % of control

Compound: COc1c(OC)c([N+](=O)[O-])c2c(c1[N+](=O)[O-])COC2=O
- T/C [4]: 104 % of control
- T/C [5]: 103 % of control

Compound: Nn1cnc2[nH]ncc2c1=O
- T/C (dose: 60.0 mg/kg/injection, schedule: Q01DX005 (ip), vehicle: saline): 99 % of control
- T/C (dose: 120.0 mg/kg/injection, schedule: Q01DX005 (ip), vehicle: saline): 99 % of control
- T/C (dose: 240.0 mg/kg/injection, schedule: Q01DX005 (ip), vehicle: saline): 105 % of control

Compound: OC(Cc1cncc(CC(O)(C(F)(F)F)C(F)(F)F)n1)(C(F)(F)F)C(F)(F)F
- T/C (dose: 50.0 mg/kg/injection, schedule: Q01DX009 (ip), vehicle: saline): 99 % of control
- T/C (dose: 100.0 mg/kg/injection, schedule: Q01DX009 (ip), vehicle: saline): 98 % of control
- T/C (dose: 200.0 mg/kg/injection, schedule: Q01DX009 (ip), vehicle: saline): 102 % of control

Compound: C=CC(=NC(C)C)N(C)c1ccccc1
- T/C (dose: 6.25 mg/kg/injection, schedule: Q01DX009 (ip), vehicle: saline): 101 % of control
- T/C (dose: 12.5 mg/kg/injection, schedule: Q01DX009 (ip), vehicle: saline): 96 % of control
- T/C (dose: 25.0 mg/kg/injection, schedule: Q01DX009 (ip), vehicle: saline): 96 % of control

Compound: Cc1[nH]c(=O)[nH]c(=O)c1/C=C/C(=O)NC(CO)CSC(C)C (centres undefined)
- T/C [1]: 86 % of control
- T/C [2]: 90 % of control
- T/C [3]: 89 % of control

Compound: CSCCC(C(=O)O)N1C(=O)C=CC1=O (centres undefined)
- T/C (dose: 11.25 mg/kg/injection, schedule: Q01DX009 (ip), vehicle: saline with Tween-80): 97 % of control
- T/C (dose: 22.5 mg/kg/injection, schedule: Q01DX009 (ip), vehicle: saline with Tween-80): 97 % of control
- T/C (dose: 45.0 mg/kg/injection, schedule: Q01DX009 (ip), vehicle: saline with Tween-80): 100 % of control and 88 % of control

Compound: NS(=O)(=O)c1ccc(Nc2c3ccc(Cl)cc3nc3ncccc23)cc1
- T/C [8]: 108 % of control
- T/C [9]: 101 % of control
- T/C [10]: 94 % of control

Compound: Cc1ccc(S(=O)(=O)NC(=O)NC2=NC(C)(C)N(c3ccc(Cl)c(Cl)c3)C(N)=N2)cc1
- T/C [11]: 105 % of control
- T/C [12]: 108 % of control
- T/C [13]: 114 % of control

Compound: N#CSc1ccc2nc(N)sc2c1
- T/C (dose: 6.25 mg/kg/injection, schedule: Q01DX009 (ip), vehicle: Klucel (hydroxypropylcellulose) (HPC)): 111 % of control
- T/C (dose: 12.5 mg/kg/injection, schedule: Q01DX009 (ip), vehicle: Klucel (hydroxypropylcellulose) (HPC)): 111 % of control
- T/C [7]: 104 % of control

Compound: O=C(c1ccccc1)C1C(=O)c2cc3c(cc2C1=O)C(=O)C(C(=O)c1ccccc1)C3=O
- T/C (dose: 25.0 mg/kg/injection, schedule: Q04DX002 (ip), vehicle: saline with Tween-80): 99 % of control
- T/C [14]: 95 % of control
- T/C [15]: 95 % of control

Compound: CC1=NOC(=O)/C1=C/c1ccc(Cl)c(Cl)c1
- T/C [8]: 112 % of control
- T/C [9]: 114 % of control

Compound: CCOc1ccc(C(CC(=O)O)CC(=O)N(CCCl)CCCl)cc1 (centres undefined)
- T/C (dose: 100.0 mg/kg/injection, schedule: Q04DX003 (ip), vehicle: suspension in saline): 101 % of control
- T/C (dose: 200.0 mg/kg/injection, schedule: Q04DX003 (ip), vehicle: suspension in saline): 102 % of control
- T/C (dose: 400.0 mg/kg/injection, schedule: Q04DX003 (ip), vehicle: suspension in saline): 105 % of control

Compound: O=c1c2c([nH]c3c4c(ccc13)NCCC4)CCC2
- T/C [14]: 95 % of control
- T/C [15]: 94 % of control
- T/C (dose: 200.0 mg/kg/injection, schedule: Q04DX002 (ip), vehicle: saline with Tween-80): 92 % of control

Compound: COC1C(C)(C)C1(Br)Br (centres undefined)
- T/C [8]: 100 % of control
- T/C [9]: 99 % of control
- T/C [10]: 98 % of control

Compound: c1ccc2c(c1)Nc1ccc3ccccc3c1S2
- T/C (dose: 25.0 mg/kg/injection, schedule: Q01DX009 (ip), vehicle: saline with Tween-80): 98 % of control
- T/C (dose: 50.0 mg/kg/injection, schedule: Q01DX009 (ip), vehicle: saline with Tween-80): 105 % of control
- T/C (dose: 100.0 mg/kg/injection, schedule: Q01DX009 (ip), vehicle: saline with Tween-80): 96 % of control
- T/C (dose: 200.0 mg/kg/injection, schedule: Q01DX009 (ip), vehicle: saline with Tween-80): 108 % of control

Compound: CCOC(=O)C1=C(C)NC(=O)NC1c1ccc(N(C)C)cc1 (centres undefined)
- T/C [4]: 90 % of control
- T/C [5]: 95 % of control
- T/C [6]: 97 % of control

Compound: CCCCN=NN(C)CCCC
- T/C (dose: 12.5 mg/kg/injection, schedule: Q01DX005 (ip), vehicle: saline with Tween-80): 107 % of control
- T/C (dose: 25.0 mg/kg/injection, schedule: Q01DX005 (ip), vehicle: saline with Tween-80): 117 % of control

Compound: Nc1ccc(Cn2ccnn2)cc1
- T/C [11]: 100 % of control
- T/C [12]: 95 % of control
- T/C [13]: 101 % of control

Compound: CC(C)(C)[Si](C)(C)ONC(=O)c1ccccc1
- T/C (dose: 6.25 mg/kg/injection, schedule: Q01DX009 (ip), vehicle: distilled water + Tween-80): 100 % of control
- T/C (dose: 12.5 mg/kg/injection, schedule: Q01DX009 (ip), vehicle: distilled water + Tween-80): 98 % of control
- T/C (dose: 25.0 mg/kg/injection, schedule: Q01DX009 (ip), vehicle: distilled water + Tween-80): 107 % of control
- T/C (dose: 50.0 mg/kg/injection, schedule: Q01DX009 (ip), vehicle: distilled water + Tween-80): 91 % of control
- T/C (dose: 100.0 mg/kg/injection, schedule: Q01DX009 (ip), vehicle: distilled water + Tween-80): 100 % of control
- T/C (dose: 200.0 mg/kg/injection, schedule: Q01DX009 (ip), vehicle: distilled water + Tween-80): 98 % of control
- T/C (dose: 400.0 mg/kg/injection, schedule: Q01DX009 (ip), vehicle: distilled water + Tween-80): 100 % of control
